Read-outs that look alike come from different tables or passages of the source.
Key:
[1] = system: R11 (WP_162024566-LBD); experiment: Microcalorimetric titration (ITC) of the R11 LBD with ligands; format: binding, Lentimonas sp. CC4; details: 25 °C; for Binding in microcalorimetric titration, R11: pH 7.0
[2] = target: T1, R1 (WP_219614703-LBD) (Aeromonas salmonicida, UniProt T0PLV6); experiment: Microcalorimetric titration (ITC) of the R1 LBD with ligands; format: binding; details: for Kd: read-out: Dissociation constant, R1
[3] = system: R13 (WP_167859577-LBD); format: binding, Paenibacillus cymbidii; details: change in Tm, threshold 2 °C; 2 mM ligand (Supplementary Fig. 7)
[4] = target: T2, R6 (WP_185834821-LBD) (Vibrio cholerae, UniProt Q9KPY8); experiment: Thermal shift assay of the R6 LBD; format: binding; details: change in Tm, threshold 2 °C
[5] = system: R5 (WP_131005693-LBD); experiment: Thermal shift assay of the R5 LBD; format: binding, Clostridioides difficile; details: change in Tm, threshold 2 °C
[6] = target: T3, R14 (WP_021170906-LBD) (Sporomusa ovata, UniProt A0A0U1L1T7); experiment: Microcalorimetric titration (ITC) of the R14 LBD with ligands; format: binding; details: for Kd: read-out: Dissociation constant, R14
T3 sequence (A0A0U1L1T7 entry or part of it): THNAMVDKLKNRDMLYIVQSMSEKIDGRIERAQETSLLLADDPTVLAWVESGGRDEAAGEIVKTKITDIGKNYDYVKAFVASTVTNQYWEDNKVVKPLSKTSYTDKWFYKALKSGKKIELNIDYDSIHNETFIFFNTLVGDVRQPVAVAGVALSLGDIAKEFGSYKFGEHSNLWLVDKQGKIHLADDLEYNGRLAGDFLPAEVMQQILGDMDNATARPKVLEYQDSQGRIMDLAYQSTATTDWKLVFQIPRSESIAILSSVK

[7] = system: R10 (WP_110129388-LBD); format: binding, Coraliomargarita sinensis; details: change in Tm, threshold 2 °C; for Binding in thermal shift assay, R10 (Supplementary Table 3): cells left empty in Table 3; for Binding in thermal shift assay, R10: 2 mM ligand (Supplementary Fig. 7)
[8] = target: R4 (WP_199478134-LBD); format: binding, Marinomonas spartinae; details: ITC, 25 °C, pH 8.0; read-out: Dissociation constant, R4
[9] = target: T4, R15 (WP_207952809-LBD) (Paenibacillus agricola, UniProt A0ABX0IZG8); experiment: Microcalorimetric titration (ITC) of the R15 LBD with ligands; format: binding, Paenibacillus sp. S3N08; details: for Binding in microcalorimetric titration, R15 / Kd: 25 °C; for Binding in microcalorimetric titration, R15: pH 7.0; for Kd: pH 7.0, read-out: Dissociation constant, R15; for N value, R15: One binding site model, * = hyperbolic curve
T4 sequence (A0ABX0IZG8 entry or part of it): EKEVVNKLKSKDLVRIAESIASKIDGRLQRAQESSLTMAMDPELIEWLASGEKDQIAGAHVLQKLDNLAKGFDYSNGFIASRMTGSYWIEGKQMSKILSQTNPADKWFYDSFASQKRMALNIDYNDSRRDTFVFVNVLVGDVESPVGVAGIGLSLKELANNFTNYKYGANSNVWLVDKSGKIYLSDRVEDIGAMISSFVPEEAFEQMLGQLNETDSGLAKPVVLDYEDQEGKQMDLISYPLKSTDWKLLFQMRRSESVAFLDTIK

[10] = target: R8 (WP_227113344-LBD) (Eggerthella sinensis, UniProt A0ABX9HL97); experiment: Microcalorimetric titration (ITC) of the R8 LBD with ligands; format: binding
[11] = target: T4, R15 (WP_207952809-LBD); experiment: Thermal shift assay of the R15 LBD; format: binding, Paenibacillus sp. S3N08; details: change in Tm, threshold 2 °C
[12] = system: R4 (WP_199478134-LBD); experiment: Thermal shift assay of the R4 LBD; format: binding, Marinomonas spartinae; details: change in Tm, threshold 2 °C
[13] = target: T2, R6 (WP_185834821-LBD); experiment: biochemical; format: binding
[14] = system: R6 diguanylate cyclase (VC2224) expressed in P. putida KT2440 pCdrA::gfpC; format: cell-based
[15] = system: R11 (WP_162024566-LBD); experiment: Thermal shift assay of the R11 LBD; format: binding, Lentimonas sp. CC4; details: change in Tm, threshold 2 °C
[16] = system: members of the family dCache_1PU (11 soluble LBDs); experiment: Thermal shift ligand screening of all dCache_1PU proteins (Biolog arrays PM3B and PM5); format: binding
[17] = system: R5 (WP_131005693-LBD); experiment: Microcalorimetric titration (ITC) of the R5 LBD with ligands; format: binding, Clostridioides difficile; details: 25 °C, pH 7.0
[18] = target: T1, R1 (WP_219614703-LBD); format: binding; details: change in Tm, threshold 2 °C
[19] = target: T3, R14 (WP_021170906-LBD); experiment: Thermal shift assay of the R14 LBD; format: binding; details: change in Tm, threshold 2 °C
[20] = system: dCache_1PU domains (11 proteins analyzed); experiment: Summary of binding data (thermal shift assays and ITC) for the 11 dCache_1PU proteins; details: of the 11 proteins analyzed
[21] = ITC, One binding site model, * = hyperbolic curve

SMILES | Binding in microcalorimetric titration, R11 [1] | Kd ([2]; ITC, 25 °C, pH 7.0) [µM] | Binding in thermal shift assay, R13 [3] | Binding in thermal shift assay, R5 [5] | Kd ([6]; ITC, 25 °C) [µM] | Kd [8] [µM] | Binding in microcalorimetric titration, R15 [9] | Binding in thermal shift assay, R4 [12] | N value, R14 [6, 21] | Shift in the thermal shift assays [16] | other results
Nc1ncnc2c1ncn2[C@@H]1O[C@H](CO)[C@@H](O)[C@H]1O [Adenosine] | Nb^a | 1.1 ± 0.1 | Nts^b (no binding observed in thermal shift assays, i.e., compounds caused changes in the midpoint of protein unfolding (Tm) of less than 2 °C) | Nts^b (no binding observed in thermal shift assays, i.e., compounds caused changes in the midpoint of protein unfolding (Tm) of less than 2 °C) | 17 ± 4.1 | 88 ± 12 | Nb^a | – | – | – | N value, R1 [2]: 0.13; Binding in thermal shift assay, R6 [4]: Nts^b (no binding observed in thermal shift assays, i.e., compounds caused changes in the midpoint of protein unfolding (Tm) of less than 2 °C); N value, R14 [6]: 0.41; Binding in thermal shift assay, R10 (Supplementary Table 3) [7]: Nts (No binding observed in thermal shift assays, i.e. compounds caused changes in the midpoint of protein unfolding (Tm) of less than 2 ºC)
NC(=O)NC1NC(=O)NC1=O (stereo not shown) [Allantoin] | Nb^a | – | Nts^b (no binding observed in thermal shift assays, i.e., compounds caused changes in the midpoint of protein unfolding (Tm) of less than 2 °C) | Nts^b (no binding observed in thermal shift assays, i.e., compounds caused changes in the midpoint of protein unfolding (Tm) of less than 2 °C) | – | – | – | Nts^b (no binding observed in thermal shift assays, i.e., compounds caused changes in the midpoint of protein unfolding (Tm) of less than 2 °C) | – | – | Binding in microcalorimetric titration, R8 ([10]; 25 °C, pH 6.0): Nb^a; Binding in thermal shift assay, R15 [11]: Nts^b (no binding observed in thermal shift assays, i.e., compounds caused changes in the midpoint of protein unfolding (Tm) of less than 2 °C); Binding in microcalorimetric titration, R14 ([6]; ITC, 25 °C): Nb^a
Nc1cc[nH]c(=O)n1 [Cytosine] | Nb^a | 1460 | Nts^b (no binding observed in thermal shift assays, i.e., compounds caused changes in the midpoint of protein unfolding (Tm) of less than 2 °C) | Nts^b (no binding observed in thermal shift assays, i.e., compounds caused changes in the midpoint of protein unfolding (Tm) of less than 2 °C) | 105 ± 20 | 74 ± 15 | Nb^a | – | 0.46 | – | N value, R1 [2, 21]: 0.21
Nc1nc2c(ncn2[C@@H]2O[C@H](CO)[C@@H](O)[C@H]2O)c(=O)[nH]1 [Guanosine] | – | 1.2 ± 0.1 | Nts^b (no binding observed in thermal shift assays, i.e., compounds caused changes in the midpoint of protein unfolding (Tm) of less than 2 °C) | Nts^b (no binding observed in thermal shift assays, i.e., compounds caused changes in the midpoint of protein unfolding (Tm) of less than 2 °C) | 25 ± 4.9 | – | – | Nts^b (no binding observed in thermal shift assays, i.e., compounds caused changes in the midpoint of protein unfolding (Tm) of less than 2 °C) | 0.13 | – | N value, R1 [2, 21]: 0.21; Kd [13]: 25 ± 5.2 µM; N value, R6 [13, 21]: 0.35; Binding in thermal shift assay, R10 [7]: Tsa^c (binding observed in thermal shift assays, i.e., compounds caused changes in Tm of more than 2 °C); Concentration causing high c-di-GMP levels ([14]; agar plates, wild-type R6 (VC2224)): 1 mM; Concentration at which colonies became wrinkly (onset of the response) ([14]; minimal medium agar plates, 24 h, 30 °C, wild-type R6): 100 µM; Binding in thermal shift assay, R11 [15]: Tsa^c (binding observed in thermal shift assays, i.e., compounds caused changes in Tm of more than 2 °C); Kd [9]: 37 ± 4 µM; N value, R15 [9]: 0.70
NC(=O)CC[C@H](N)C(=O)O [L-Gln] | – | – | – | – | – | – | – | – | – | did not produce any significant shift | –
N[C@@H](Cc1c[nH]c2ccccc12)C(=O)O [L-Trp] | – | – | – | – | – | – | – | – | – | did not produce any significant shift | –
c1ncc2nc[nH]c2n1 [Purine] | Nb^a | – | Nts^b (no binding observed in thermal shift assays, i.e., compounds caused changes in the midpoint of protein unfolding (Tm) of less than 2 °C) | – | 94 ± 19 | 2.3 ± 0.3 | Nb^a | – | 0.19 | – | Binding in microcalorimetric titration, R5 [17]: Nb^a
Cc1c[nH]c(=O)[nH]c1=O [Thymine] | – | 595 ± 47 | Nts^b (no binding observed in thermal shift assays, i.e., compounds caused changes in the midpoint of protein unfolding (Tm) of less than 2 °C) | Nts^b (no binding observed in thermal shift assays, i.e., compounds caused changes in the midpoint of protein unfolding (Tm) of less than 2 °C) | 32 ± 8.9 | 21 ± 0.4 | Nb^a | – | 0.99 | – | Kd ([1]; pH 7.0, 1 mM β-mercaptoethanol, read-out: Dissociation constant, R11): 854 ± 254 µM; N value, R1 [2, 21]: 0.20
O=c1[nH]c(=O)c2[nH]c(=O)[nH]c2[nH]1 [Uric acid] | Nb^a | – | Nts^b (no binding observed in thermal shift assays, i.e., compounds caused changes in the midpoint of protein unfolding (Tm) of less than 2 °C) | – | – | – | Nb^a | Nts^b (no binding observed in thermal shift assays, i.e., compounds caused changes in the midpoint of protein unfolding (Tm) of less than 2 °C) | – | – | Binding in thermal shift assay, R1 [18]: Nts^b (no binding observed in thermal shift assays, i.e., compounds caused changes in the midpoint of protein unfolding (Tm) of less than 2 °C); Binding in microcalorimetric titration, R5 [17]: Nb^a; Binding in thermal shift assay, R6 [4]: Nts^b (no binding observed in thermal shift assays, i.e., compounds caused changes in the midpoint of protein unfolding (Tm) of less than 2 °C); Binding in thermal shift assay, R10 (Supplementary Table 3) [7]: Nts (No binding observed in thermal shift assays, i.e. compounds caused changes in the midpoint of protein unfolding (Tm) of less than 2 ºC); Binding in thermal shift assay, R14 [19]: Nts^b (no binding observed in thermal shift assays, i.e., compounds caused changes in the midpoint of protein unfolding (Tm) of less than 2 °C)
O=c1[nH]c(=O)c2nc[nH]c2[nH]1 [Xanthine] | Nb^a | – | Nts^b (no binding observed in thermal shift assays, i.e., compounds caused changes in the midpoint of protein unfolding (Tm) of less than 2 °C) | – | 5.1 ± 0.9 | – | – | Nts^b (no binding observed in thermal shift assays, i.e., compounds caused changes in the midpoint of protein unfolding (Tm) of less than 2 °C) | 0.13 | – | N value, R8 ([10]; One binding site model, * = hyperbolic curve): 0.15; Binding in microcalorimetric titration, R1 ([2]; ITC, 25 °C, pH 7.0): Nb^a; Proteins that bound / recognized the ligand [20]: 2; Binding in microcalorimetric titration, R5 [17]: Nb^a; Binding in thermal shift assay, R6 [4]: Nts^b (no binding observed in thermal shift assays, i.e., compounds caused changes in the midpoint of protein unfolding (Tm) of less than 2 °C); Binding in thermal shift assay, R10 [7]: Tsa^c (binding observed in thermal shift assays, i.e., compounds caused changes in Tm of more than 2 °C); Kd [9]: 7.6 ± 1.1 µM; N value, R15 [9]: 0.05
C[N+](C)(C)CCO [choline] | – | – | – | – | – | – | – | – | – | did not produce any significant shift | –
NCCO [ethanolamine] | – | – | – | – | – | – | – | – | – | did not produce any significant shift | –
CN [methylamine] | – | – | – | – | – | – | – | – | – | did not produce any significant shift | –

— PMC11245519, “Ubiquitous purine sensor modulates diverse signal transduction pathways in bacteria” (Nature Communications, 2024)
